Measured values from publication PMC11833248, “Evolutionary and Functional Analysis of Monoamine Oxidase F: A Novel Member of the Monoamine Oxidase Gene Family” (Genome Biology and Evolution, 2025).

Each compound was assayed on IPT-MAO A/B (assay: not given). Details: read-out: IPT-MAO A/B / K M / Human MAOB; 25 °C, 50 mM Hepes/NaOH pH 7.5, 0.5% v/v reduced Triton X-100.

Row | Km [µM] | SMILES
1 | 100 ± 10 | NCCc1c[nH]c2ccc(O)cc12 [Serotonin]
2 | 300 ± 30 | NCCc1ccc(O)c(O)c1 [Dopamine]

The compounds below were run on T1, IPT-MAO A/B (assay: HRP-coupled spectrophotometric assay of H2O2, […] nm). Details: 25 °C, 50 mM Hepes/NaOH pH 7.5, 0.5% v/v reduced Triton X-100; read-out: IPT-MAO A/B / K M / Human MAOB.
T1 construct: full length 522 residues (borders given for the mammalian construct); N-terminal 6xHis; Pichia pastoris KM71; detergent-solubilized, FOS-choline-12
Format: biochemical, Megalops cyprinoides

Row | Km [µM] | SMILES
3 | 30 ± 4 | NCCC(=O)c1ccccc1N [Kynuramine]
4 | 200 ± 40 | NCCc1ccc(O)cc1 [Tyramine]
5 | 50 ± 10 | NCc1ccccc1 [Benzylamine]

Row | SMILES | Km [µM]
6 | NCCc1ccccc1 [Phenethylamine] | 70 ± 10
